# Reference: PubChem BioAssay AID256 (DTP/NCI, 2004)
# Inconclusive results and toxic doses are left out. Non-standard residues stand in square brackets, D forms with d. Residues, ends and D or L forms follow the SMILES beside them. *: point of attachment. Cbz = O=C(OCc1ccccc1)*; Dha = C=C(N)C(=O)O
# Test system: CD2F1 mice, L1210 leukemia ip, survival T/C
# Test: NCI In Vivo Anticancer Drug Screen. Data for tumor model L1210 Leukemia (intraperitoneal) in CD2F1 (CDF1) mice
# Settings: higher = longer survival
# Outline: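 Antitumor effect is scored in animals hosting a serially transplanted tumor. Values compare compound-dosed animals against vehicle-only controls as a simple quotient.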
# [1] = endpoint: mean survival time, dose: 100.0 mg/kg/injection, schedule: Q04DX002 (ip), vehicle: saline with Tween-80
# [2] = endpoint: mean survival time, dose: 200.0 mg/kg/injection, schedule: Q04DX002 (ip), vehicle: saline with Tween-80
# [3] = endpoint: mean survival time, dose: 400.0 mg/kg/injection, schedule: Q04DX002 (ip), vehicle: saline with Tween-80
# [4] = endpoint: mean survival time, dose: 100.0 mg/kg/injection, schedule: Q01DX009 (ip), vehicle: saline with Tween-80
# [5] = endpoint: mean survival time, dose: 100.0 mg/kg/injection, schedule: Q04DX003 (ip), vehicle: saline with Tween-80
# [6] = endpoint: mean survival time, dose: 200.0 mg/kg/injection, schedule: Q01DX009 (ip), vehicle: saline with Tween-80
# [7] = endpoint: mean survival time, dose: 200.0 mg/kg/injection, schedule: Q04DX003 (ip), vehicle: saline with Tween-80
# [8] = endpoint: mean survival time, dose: 400.0 mg/kg/injection, schedule: Q04DX003 (ip), vehicle: saline with Tween-80
smiles,measurement,setting,value
C=C(NC(=O)CNC(=O)OCc1ccccc1)C(=O)O (Cbz-Gly-[Dha]-OH),T/C,"endpoint: mean survival time, dose: 50.0 mg/kg/injection, schedule: Q04DX002 (ip), vehicle: saline with Tween-80",102 % of control
same,T/C,[1],98 % of control
same,T/C,[2],96 % of control
same,T/C,[3],94 % of control
O=NN(CCCl)C(=O)NC1CCCN(Cc2ccccc2)C1 (configuration not stated),T/C,"endpoint: mean survival time, dose: 6.25 mg/kg/injection, schedule: Q01DX001 (ip), vehicle: saline with Tween-80",106 % of control
same,T/C,"endpoint: mean survival time, dose: 12.5 mg/kg/injection, schedule: Q01DX001 (ip), vehicle: saline with Tween-80",115 % of control
same,T/C,"endpoint: mean survival time, dose: 50.0 mg/kg/injection, schedule: Q01DX001 (ip), vehicle: saline with Tween-80",168 % of control
same,T/C,"endpoint: mean survival time, dose: 100.0 mg/kg/injection, schedule: Q01DX001 (ip), vehicle: saline with Tween-80",340 % of control
C/C(=C\c1ccccc1)C(=O)c1ccccc1,T/C,"endpoint: mean survival time, dose: 100.0 mg/kg/injection, schedule: Q04DX003 (ip), vehicle: Klucel (hydroxypropylcellulose) (HPC)",106 % of control
same,T/C,"endpoint: mean survival time, dose: 200.0 mg/kg/injection, schedule: Q04DX003 (ip), vehicle: Klucel (hydroxypropylcellulose) (HPC)",101 % of control
same,T/C,"endpoint: mean survival time, dose: 400.0 mg/kg/injection, schedule: Q04DX003 (ip), vehicle: Klucel (hydroxypropylcellulose) (HPC)",98 % of control
C=CCOC(=O)CCCCCCCCC(=O)OCC=C,T/C,[4],97 % of control
same,T/C,[5],96 % of control
same,T/C,[6],95 % of control
same,T/C,[7],94 % of control
CC(C)(CCC(C)(C)c1ccccc1)c1ccccc1,T/C,"endpoint: mean survival time, dose: 50.0 mg/kg/injection, schedule: Q01DX009 (ip), vehicle: saline with Tween-80",96 % of control
same,T/C,[4],96 % of control
same,T/C,[6],96 % of control
[Cl][Pt][Cl].c1ccc([PH+](CC[PH+](c2ccccc2)c2ccccc2)c2ccccc2)cc1,T/C,"endpoint: mean survival time, dose: 37.5 mg/kg/injection, schedule: Q04DX003 (ip), vehicle: saline",98 % of control
same,T/C,"endpoint: mean survival time, dose: 75.0 mg/kg/injection, schedule: Q04DX003 (ip), vehicle: saline",93 % of control
same,T/C,"endpoint: mean survival time, dose: 150.0 mg/kg/injection, schedule: Q04DX003 (ip), vehicle: saline",96 % of control
same,T/C,"endpoint: mean survival time, dose: 300.0 mg/kg/injection, schedule: Q04DX003 (ip), vehicle: saline",95 % of control
CCCCCCCCCCCCCCCCNS(=O)(=O)c1ccc2sc(SC)nc2c1,T/C,"endpoint: mean survival time, dose: 12.5 mg/kg/injection, schedule: Q04DX002 (ip), vehicle: saline with Tween-80",93 % of control
same,T/C,"endpoint: mean survival time, dose: 25.0 mg/kg/injection, schedule: Q04DX002 (ip), vehicle: saline with Tween-80",93 % of control
CC(=O)N1c2cc3ccccc3cc2N(C(C)=O)c2cc3ccccc3cc21,T/C,[5],103 % of control
same,T/C,[7],103 % of control
same,T/C,[8],107 % of control
CCCCCCCCOc1ccc(Cl)cc1,T/C,[1],90 % of control
same,T/C,[2],90 % of control
same,T/C,[3],93 % of control
N#CCCOCCNCCSC(=O)c1ccccc1,T/C,[5],95 % of control
same,T/C,[7],101 % of control
same,T/C,[8],95 % of control
Nc1nc(N)c2c(n1)=NC(c1cccc3ccccc13)N=2 (configuration not stated),T/C,"endpoint: mean survival time, dose: 6.25 mg/kg/injection, schedule: Q01DX005 (ip), vehicle: water",92 % of control
same,T/C,"endpoint: mean survival time, dose: 12.5 mg/kg/injection, schedule: Q01DX005 (ip), vehicle: water",89 % of control
same,T/C,"endpoint: mean survival time, dose: 25.0 mg/kg/injection, schedule: Q01DX005 (ip), vehicle: water",91 % of control
same,T/C,"endpoint: mean survival time, dose: 50.0 mg/kg/injection, schedule: Q01DX005 (ip), vehicle: water",92 % of control
same,T/C,"endpoint: mean survival time, dose: 100.0 mg/kg/injection, schedule: Q01DX005 (ip), vehicle: water",89 % of control
same,T/C,"endpoint: mean survival time, dose: 200.0 mg/kg/injection, schedule: Q01DX005 (ip), vehicle: other",96 % of control
same,T/C,"endpoint: mean survival time, dose: 400.0 mg/kg/injection, schedule: Q01DX005 (ip), vehicle: other",96 % of control
CCOC(=O)CN(C=O)C1c2ccccc2-c2ccccc21,T/C,[5],99 % of control
same,T/C,[7],92 % of control
same,T/C,[8],97 % of control
CN(C)C1c2ccccc2-c2ccccc21,T/C,"endpoint: mean survival time, dose: 50.0 mg/kg/injection, schedule: Q01DX001 (ip), vehicle: carboxymethylcellulose (CMC)",104 % of control
same,T/C,"endpoint: mean survival time, dose: 100.0 mg/kg/injection, schedule: Q01DX001 (ip), vehicle: carboxymethylcellulose (CMC)",104 % of control
same,T/C,"endpoint: mean survival time, dose: 200.0 mg/kg/injection, schedule: Q01DX001 (ip), vehicle: carboxymethylcellulose (CMC)",104 % of control
same,T/C,"endpoint: mean survival time, dose: 400.0 mg/kg/injection, schedule: Q01DX001 (ip), vehicle: carboxymethylcellulose (CMC)",110 % of control
COc1ccc(OC)c(C2=CCCCCC2)c1,T/C,[5],101 % of control
same,T/C,[7],102 % of control
same,T/C,[8],90 % of control
CC(=O)OCC1CCC1,T/C,[4],95 % of control
same,T/C,[6],95 % of control
same,T/C,"endpoint: mean survival time, dose: 400.0 mg/kg/injection, schedule: Q01DX009 (ip), vehicle: saline with Tween-80",103 % of control
COC(=O)c1[nH]cnc1/N=N\N(CCF)CCF,T/C,"endpoint: mean survival time, dose: 2.1 mg/kg/injection, schedule: Q01DX009 (ip), vehicle: carboxymethylcellulose (CMC)",109 % of control
same,T/C,"endpoint: mean survival time, dose: 4.2 mg/kg/injection, schedule: Q01DX009 (ip), vehicle: carboxymethylcellulose (CMC)",108 % of control
CC(O)CCC(=O)c1ccoc1 (configuration not stated),T/C,"endpoint: median survival time, dose: 0.62 mg/kg/injection, schedule: Q03HX015 (ip), vehicle: saline",109 % of control
same,T/C,"endpoint: median survival time, dose: 1.25 mg/kg/injection, schedule: Q03HX015 (ip), vehicle: saline",117 % of control
same,T/C,"endpoint: median survival time, dose: 2.5 mg/kg/injection, schedule: Q03HX015 (ip), vehicle: saline",106 % of control
same,T/C,"endpoint: median survival time, dose: 3.75 mg/kg/injection, schedule: Q03HX015 (ip), vehicle: saline + alcohol",112 % of control
same,T/C,"endpoint: median survival time, dose: 5.0 mg/kg/injection, schedule: Q03HX015 (ip), vehicle: saline",102 % of control
same,T/C,"endpoint: median survival time, dose: 7.5 mg/kg/injection, schedule: Q03HX015 (ip), vehicle: saline + alcohol",105 % of control
same,T/C,"endpoint: median survival time, dose: 10.0 mg/kg/injection, schedule: Q03HX015 (ip), vehicle: saline",109 % of control
